Test: recombinant UMI read abundance after kanamycin selection (control-corrected) (log10(CPM+1)); higher = more efficient recombination; extreme values may be limits of the assay; sequences stand for … in AGTGCAGAGAAAATCGGCCAGTTTTCTCTGCCTGCAGTCCGCATGCCGTGGGACCCCTTGGGTTCTAACCTGTTGCCTAGATTTATGCAGCGGACTGCCTTTCTCCCAAAGTGATAAACCGG…AGGTTGGTTTCACT; site = the 11-nt donor
Outline: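 For the IS621 bridge recombinase, a pooled Escherichia coli screen tested donor and donor-binding-loop pairs. Cells received the pair library together with a target plasmid encoding a fixed target and T7-inducible recombinase, then went onto IPTG (0.07 mM) plus kanamycin or unselected plates in duplicate. After PCR across the donor–target junction and sequencing, recombinant UMI counts were normalized to CPM, averaged, and scaled by control-derived factors. Each value is given as log10(CPM+1).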
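Also: IS621 bridge recombinase in Escherichia coli cells against a fixed T5 target plasmid.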

**Q.** For “TGTAGTACATGGACCGGTTTTCCCGGTAATCCGTATTTGAC (site TGTAGTACTGT)”, which “recombinant UMI read abundance (log10)” value is on record?
**A.** 0.509

**Q.** Which “recombinant UMI read abundance (log10)” value does the source give for “TGTATCGCATGGACCGGTTTTCCCGGTAATCCGTATTTGCT (site TGTATCGCTAG)” here?
**A.** 1.57

**Q.** Which “recombinant UMI read abundance (log10)” value does the source give for “TGTATTTCATGGACCGGTTTTCCCGGTAATCCGTATTTGGG (site TGTATTTCTCC)” here?
**A.** 0.402

**Q.** With “TGTCGTCCATGGACCGGTTTTCCCGGTAATCCGTATTTGCA (site TGTCGTCCTTG)” as the sequence, how does the “recombinant UMI read abundance (log10)” value read?
**A.** 0.616

**Q.** For “TGTCTTCCATGGACCGGTTTTCCCGGTAATCCGTATTTGTC (site TGTCTTCCTGA)”, which “recombinant UMI read abundance (log10)” value is on record?
**A.** 0

**Q.** For “TGTGATTCATGGACCGGTTTTCCCGGTAATCCGTATTTGTT (site TGTGATTCTAA)”, which “recombinant UMI read abundance (log10)” value is on record?
**A.** 0

**Q.** For “TGTTAACCATGGACCGGTTTTCCCGGTAATCCGTATTTGTC (site TGTTAACCTGA)”, which “recombinant UMI read abundance (log10)” value is on record?
**A.** 0

**Q.** Which “recombinant UMI read abundance (log10)” value does the source give for “TGTTAGACATGGACCGGTTTTCCCGGTAATCCGTATTTGAG (site AGTTAGACTCT)” here?
**A.** 0.103

**Q.** With “TGTTAGACATGGACCGGTTTTCCCGGTAATCCGTATTTGAG (site CGTTAGACTCT)” as the sequence, how does the “recombinant UMI read abundance (log10)” value read?
**A.** 0.204

**Q.** For “TGTTAGACATGGACCGGTTTTCCCGGTAATCCGTATTTGAG (site GGTTAGACTCT)”, which “recombinant UMI read abundance (log10)” value is on record?
**A.** 0.0119

**Q.** With “TGTTAGACATGGACCGGTTTTCCCGGTAATCCGTATTTGAG (site TGTTAGACTCT)” as the sequence, how does the “recombinant UMI read abundance (log10)” value read?
**A.** 0.233

**Q.** For “TGTTCCGCATGGACCGGTTTTCCCGGTAATCCGTATTTGTC (site TGTTCCGCTGA)”, which “recombinant UMI read abundance (log10)” value is on record?
**A.** 1.06

**Q.** Which “recombinant UMI read abundance (log10)” value does the source give for “TGTTGAGCATGGACCGGTTTTCCCGGTAATCCGTATTTGCA (site TGTTGAGCTTG)” here?
**A.** 0.98

**Q.** Which “recombinant UMI read abundance (log10)” value does the source give for “TGTTTAGCATGGACCGGTTTTCCCGGTAATCCGTATTTGGG (site TGTTTAGCTCC)” here?
**A.** 0.00333

**Q.** Which “recombinant UMI read abundance (log10)” value does the source give for “TTAAAGCCATGGACCGGTTTTCCCGGTAATCCGTATTTGGC (site TTAAAGCCTGC)” here?
**A.** 0

**Q.** Which “recombinant UMI read abundance (log10)” value does the source give for “TTAATATCATGGACCGGTTTTCCCGGTAATCCGTATTTGAC (site CTAGTATCTGT)” here?
**A.** 0

**Q.** Which “recombinant UMI read abundance (log10)” value does the source give for “TTAATATCATGGACCGGTTTTCCCGGTAATCCGTATTTGAC (site TTAATATCTGT)” here?
**A.** 1.18

**Q.** With “TTACAAACATGGACCGGTTTTCCCGGTAATCCGTATTTGAG (site TTACAAACTCT)” as the sequence, how does the “recombinant UMI read abundance (log10)” value read?
**A.** 2.21

**Q.** Which “recombinant UMI read abundance (log10)” value does the source give for “TTACCCACATGGACCGGTTTTCCCGGTAATCCGTATTTGTG (site TTACCCACTCA)” here?
**A.** 0.0352

**Q.** Which “recombinant UMI read abundance (log10)” value does the source give for “TTACGCTCATGGACCGGTTTTCCCGGTAATCCGTATTTGAT (site TTACGCTCTAT)” here?
**A.** 1.93

**Q.** Which “recombinant UMI read abundance (log10)” value does the source give for “TTACGTGCATGGACCGGTTTTCCCGGTAATCCGTATTTGTA (site TTACGTGCTTA)” here?
**A.** 1.51

**Q.** For “TTACGTTCATGGACCGGTTTTCCCGGTAATCCGTATTTGAG (site TTACGTTCTCT)”, which “recombinant UMI read abundance (log10)” value is on record?
**A.** 1.76

**Q.** With “TTACTGTCATGGACCGGTTTTCCCGGTAATCCGTATTTGGA (site TTACTGTCTTC)” as the sequence, how does the “recombinant UMI read abundance (log10)” value read?
**A.** 1.38

**Q.** Which “recombinant UMI read abundance (log10)” value does the source give for “TTAGAACCATGGACCGGTTTTCCCGGTAATCCGTATTTGCC (site TTAGAACCTGG)” here?
**A.** 0

**Q.** For “TTAGATCCATGGACCGGTTTTCCCGGTAATCCGTATTTGAG (site TTAGATCCTCT)”, which “recombinant UMI read abundance (log10)” value is on record?
**A.** 0.358

**Q.** For “TTAGCAACATGGACCGGTTTTCCCGGTAATCCGTATTTGAG (site TTAGCAACTCT)”, which “recombinant UMI read abundance (log10)” value is on record?
**A.** 0.835

**Q.** For “TTAGCGGCATGGACCGGTTTTCCCGGTAATCCGTATTTGTG (site TTAGCAGCTCA)”, which “recombinant UMI read abundance (log10)” value is on record?
**A.** 0.356

**Q.** Which “recombinant UMI read abundance (log10)” value does the source give for “TTAGCGGCATGGACCGGTTTTCCCGGTAATCCGTATTTGTG (site TTAGCCGCTCA)” here?
**A.** 0.00441

**Q.** With “TTAGCGGCATGGACCGGTTTTCCCGGTAATCCGTATTTGTG (site TTAGCGGCTCA)” as the sequence, how does the “recombinant UMI read abundance (log10)” value read?
**A.** 1.51

**Q.** Which “recombinant UMI read abundance (log10)” value does the source give for “TTAGCGGCATGGACCGGTTTTCCCGGTAATCCGTATTTGTG (site TTAGCTGCTCA)” here?
**A.** 0.0387

**Q.** For “TTAGCTGCATGGACCGGTTTTCCCGGTAATCCGTATTTGTT (site TTAGCTGCTAA)”, which “recombinant UMI read abundance (log10)” value is on record?
**A.** 1.08

**Q.** For “TTAGCTGCATGGACCGGTTTTCCCGGTAATCCGTATTTGTT (site TTAGCTGCTCA)”, which “recombinant UMI read abundance (log10)” value is on record?
**A.** 0.187

**Q.** With “TTAGCTGCATGGACCGGTTTTCCCGGTAATCCGTATTTGTT (site TTAGCTGCTGA)” as the sequence, how does the “recombinant UMI read abundance (log10)” value read?
**A.** 0.423

**Q.** Which “recombinant UMI read abundance (log10)” value does the source give for “TTAGCTGCATGGACCGGTTTTCCCGGTAATCCGTATTTGTT (site TTAGCTGCTTA)” here?
**A.** 0.0119

**Q.** With “TTAGGACCATGGACCGGTTTTCCCGGTAATCCGTATTTGCA (site TTAGGACCTTG)” as the sequence, how does the “recombinant UMI read abundance (log10)” value read?
**A.** 0.00659

**Q.** For “TTAGGTACATGGACCGGTTTTCCCGGTAATCCGTATTTGAC (site ATAGGTACTGT)”, which “recombinant UMI read abundance (log10)” value is on record?
**A.** 0.0067

**Q.** Which “recombinant UMI read abundance (log10)” value does the source give for “TTAGGTACATGGACCGGTTTTCCCGGTAATCCGTATTTGAC (site CTAGGTACTGT)” here?
**A.** 0

**Q.** Which “recombinant UMI read abundance (log10)” value does the source give for “TTAGGTACATGGACCGGTTTTCCCGGTAATCCGTATTTGAC (site GTAGGTACTGT)” here?
**A.** 0

**Q.** For “TTAGGTACATGGACCGGTTTTCCCGGTAATCCGTATTTGAC (site TTAGGTACTGT)”, which “recombinant UMI read abundance (log10)” value is on record?
**A.** 1.98

**Q.** Which “recombinant UMI read abundance (log10)” value does the source give for “TTAGTATCATGGACCGGTTTTCCCGGTAATCCGTATTTGTC (site CTAGTATCTGT)” here?
**A.** 0

**Q.** With “TTAGTATCATGGACCGGTTTTCCCGGTAATCCGTATTTGTC (site TTAGTATCTGA)” as the sequence, how does the “recombinant UMI read abundance (log10)” value read?
**A.** 1.77

**Q.** For “TTATAAGCATGGACCGGTTTTCCCGGTAATCCGTATTTGAG (site TTATAAGCTCT)”, which “recombinant UMI read abundance (log10)” value is on record?
**A.** 1.65

**Q.** Which “recombinant UMI read abundance (log10)” value does the source give for “TTATACCCATGGACCGGTTTTCCCGGTAATCCGTATTTGAG (site TTATACCCTCT)” here?
**A.** 0.00206

**Q.** For “TTATCATCATGGACCGGTTTTCCCGGTAATCCGTATTTGCT (site CGATCATCTAG)”, which “recombinant UMI read abundance (log10)” value is on record?
**A.** 0.595

**Q.** With “TTATCATCATGGACCGGTTTTCCCGGTAATCCGTATTTGCT (site TTATCATCTAG)” as the sequence, how does the “recombinant UMI read abundance (log10)” value read?
**A.** 1.98

**Q.** With “TTATGAGCATGGACCGGTTTTCCCGGTAATCCGTATTTGGG (site TAATGAGCTCC)” as the sequence, how does the “recombinant UMI read abundance (log10)” value read?
**A.** 0.0152

**Q.** Which “recombinant UMI read abundance (log10)” value does the source give for “TTATGAGCATGGACCGGTTTTCCCGGTAATCCGTATTTGGG (site TCATGAGCTCC)” here?
**A.** 0.0145

**Q.** With “TTATGAGCATGGACCGGTTTTCCCGGTAATCCGTATTTGGG (site TGATGAGCTCC)” as the sequence, how does the “recombinant UMI read abundance (log10)” value read?
**A.** 0.0171

**Q.** Which “recombinant UMI read abundance (log10)” value does the source give for “TTATGAGCATGGACCGGTTTTCCCGGTAATCCGTATTTGGG (site TTATGAGCTCC)” here?
**A.** 0.0057

**Q.** Which “recombinant UMI read abundance (log10)” value does the source give for “TTATGCGCATGGACCGGTTTTCCCGGTAATCCGTATTTGCC (site TTATGCGCTGG)” here?
**A.** 1.93

**Q.** For “TTATTACCATGGACCGGTTTTCCCGGTAATCCGTATTTGGG (site TTATTACCTCC)”, which “recombinant UMI read abundance (log10)” value is on record?
**A.** 0.0164

**Q.** Which “recombinant UMI read abundance (log10)” value does the source give for “TTATTTACATGGACCGGTTTTCCCGGTAATCCGTATTTGAA (site TTATTTACTTT)” here?
**A.** 0.00385

**Q.** For “TTCAACCCATGGACCGGTTTTCCCGGTAATCCGTATTTGGA (site TTCAACCCTTC)”, which “recombinant UMI read abundance (log10)” value is on record?
**A.** 0

**Q.** For “TTCAACTCATGGACCGGTTTTCCCGGTAATCCGTATTTGTC (site TTCAACTCTGA)”, which “recombinant UMI read abundance (log10)” value is on record?
**A.** 0.222

**Q.** With “TTCAATTCATGGACCGGTTTTCCCGGTAATCCGTATTTGCC (site TACAATTCTGG)” as the sequence, how does the “recombinant UMI read abundance (log10)” value read?
**A.** 0

**Q.** Which “recombinant UMI read abundance (log10)” value does the source give for “TTCAATTCATGGACCGGTTTTCCCGGTAATCCGTATTTGCC (site TCCAATTCTGG)” here?
**A.** 0

**Q.** For “TTCAATTCATGGACCGGTTTTCCCGGTAATCCGTATTTGCC (site TGCAATTCTGG)”, which “recombinant UMI read abundance (log10)” value is on record?
**A.** 0

From the supplement of paper PMC11208160
